Reference: EP0435794A1, “Alkenyl- or heteroaryl thio, sulfone, sulfoxy herbicides” (RHONE-POULENC AGROCHIMIE, priority 1989, dated 1991)

Assays:
Assay type in all cases: in vivo
Alopecurus myosuroides = experiment: Exemple C: selectivity test in field crops, pre-emergence (weed); details: dose 1 Kg m.a./ha, 24 days
Text: (§1) Exemple C - Essai de sélectivité en grandes cultures avec application herbicide, en prélevée des espèces végétales
(§2) Dans des pots de 7 X 7 X 8 cm remplis de terre agricole légère, on sème un nombre de graines déterminé en fonction de l'espèce végétale et de la grosseur de la graine.
(§3) On recouvre ensuite les graines d'une couche de terre d'environ 3 mm d'épaisseur.
(§4) Les pots sont alors traités par pulvérisation de bouillie en quantité correspondant à une dose volumique d'application de 500 l/ha et contenant la matière active à la concentration désirée.
(§5) La bouillie a été préparée de la même manière qu'à l'exemple A.
(§6) Les pots traités sont ensuite placés dans des bacs destinés à recevoir l'eau d'arrosage, en subirrigation, et maintenus pendant 24 jours à température ambiante sous 70 % d'humidité relative.
(§7) Le relevé est effectué de la façon suivante:
(§8) Au bout de 24 jours, on mesure un pourcentage (D) de destruction du nombre de pieds dans le pot traité par rapport au nombre de plantes dans les pots non traités (témoin). On mesure, sur les plantes traitées restantes, le pourcentage de réduction de taille (RT) par rapport aux plantes témoins.
(§9) Le pourcentage de volume foliaire non détruit par le produit est donc donné par la formule: ([100-D] X [100-RT])/(100)= A [formula]
(§10) Cette valeur A est transformée en notation de 0 à 5 selon l'échelle suivante:
(§11) Ainsi, un produit est jugé comme sélectif vis à vis de la culture lorsque la valeur A notée est de 0 ou 1.
(§12) Les résultats obtenus sont présentés dans l'exemple C pour des doses d'application de 500, 1000, 2000 ou 4000 g de matière active par hectare selon les produits.
(§13) Les espèces végétales utilisées dans cet exemple sont: […]

Setaria faberii = experiment: as above; details: dose 1 Kg m.a./ha, 24 days
Text: as §1, §2, §3, §4, §5, §6, §7, §8, §9, §10, §11, §12, §13

Panicum milicaeum = experiment: as above; details: dose 1 Kg m.a./ha, 24 days
Text: as §1, §2, §3, §4, §5, §6, §7, §8, §9, §10, §11, §12, §13

Echinochloa crus-galli = experiment: as above; details: dose 1 Kg m.a./ha, 24 days
Text: as §1, §2, §3, §4, §5, §6, §7, §8, §9, §10, §11, §12, §13

Digitaria sanguinalis [1] = experiment: as above; details: dose 1 Kg m.a./ha, 24 days
Text: as §1, §2, §3, §4, §5, §6, §7, §8, §9, §10, §11, §12, §13

Sorghum halepense = experiment: as above; details: dose 1 Kg m.a./ha, 24 days
Text: as §1, §2, §3, §4, §5, §6, §7, §8, §9, §10, §11, §12, §13

blé = experiment: Exemple C: selectivity test in field crops, pre-emergence (crop); details: dose 1 Kg m.a./ha, 24 days, 0 or 1 = selective; further: ranges in brackets are in %
Text: as §1, §2, §3, §4, §5, §6, §7, §8, §9, §10, §11, §12
(§14) Les espèces végétales utilisées dans cet exemple sont:
(§15) Comme on peut le voir sur le tableau de résultats de cet exemple C, de nombreux produits présentent une excellente activité antigraminée de prélevée tout en montrant une excellente sélectivité pour 1 ou 2 ou 3 ou 4 des 4 cultures testées = blé, maïs, riz, soja.

soja = experiment: as above; details: dose 1 Kg m.a./ha, 24 days, 0 or 1 = selective; further: ranges in brackets are in %
Text: as §1, §2, §3, §4, §5, §6, §7, §8, §9, §10, §11, §12, §14, §15

maïs = experiment: as above; details: dose 1 Kg m.a./ha, 24 days, 0 or 1 = selective; further: ranges in brackets are in %
Text: as §1, §2, §3, §4, §5, §6, §7, §8, §9, §10, §11, §12, §14, §15

riz = experiment: as above; details: dose 1 Kg m.a./ha, 24 days, 0 or 1 = selective; further: ranges in brackets are in %
Text: as §1, §2, §3, §4, §5, §6, §7, §8, §9, §10, §11, §12, §14, §15

Alopecurus myosuroïdes = experiment: Exemple A: herbicide application, pre-emergence; details: dose 4 Kg m.a./ha, notation 0 à 5 after 24 days
Text: (§16) Exemple A - Application herbicide, en prélevée des espèces végétales
(§17) Dans des pots de 7 x 7 x 8 cm remplis de terre agricole légère, on sème un nombre de graines déterminé en fonction de l'espèce végétale et de la grosseur de la graine.
(§18) Les pots sont traités par pulvérisation de bouillie en quantité correspondant à une dose volumique d'application de 500 l/ha et contenant la matière active à la concentration désirée.
(§19) Le traitement avec la bouillie est donc effectué sur des graines non recouvertes de terre (on utilise le terme de bouillie pour désigner, en général, les compositions diluées à l'eau, telles qu'on les applique sur les végétaux).
(§20) La bouillie utilisée pour le traitement est une solution ou suspension de la matière active dans un mélange acétone/eau en proportions 50/50, en présence de 0,05 % en poids de cemulsol NP 10 (agent tensio-actif) constitué d'alkylphénol polyéthoxylé, notamment de nonylphénol polyéthoxylé) et 0,04 % en poids de tween 20 (agent tensio-actif constitué d'un oléate de dérivé polyoxyéthyléné du sorbitol).
(§21) Dans le cas d'une suspension, celle-ci est obtenue en mélangeant et broyant les ingrédients dans un microniseur de façon à obtenir une grosseur moyenne de particules inférieure à 40 microns.
(§22) Après traitement, on recouvre les graines d'une couche de terre d'environ 3 mm d'épaisseur.
(§23) Les pots sont alors placés dans des bacs destinés à recevoir l'eau d'arrosage, en subirrigation, et maintenus pendant 24 jours à température ambiante sous 70 % d'humidité relative.
as §7
(§24) Au bout de 24 jours, on mesure un pourcentage (D) des destructions du nombre de pieds dans le pot traité par rapport au nombre de plantes dans les pots non traités (témoin). On mesure, sur les plantes traitées restantes, le pourcentage de réduction de taille (RT) par rapport aux plantes témoin.
(§25) Le pourcentage du volume foliaire non détruit par le produit est donc donné par la formule: ([100-D] x [100-RT])/(100)= A [formula]
as §10
(§26) Les résultats obtenus sont présentés après l'exemple B pour des doses d'application de 4000 g/ha à 1000 g/ha.
(§27) Les espèces végétales utilisées dans ces exemples A et B sont: […]

Cyperus esculentus = experiment: Exemple A: herbicide application, pre-emergence; details: dose 4 Kg m.a./ha, notation 0 à 5 after 24 days
Text: as §16, §17, §18, §19, §20, §21, §22, §23, §7, §24, §25, §10, §26, §27

Echinochloa crus galli = experiment: Exemple A: herbicide application, pre-emergence; details: dose 4 Kg m.a./ha, notation 0 à 5 after 24 days
Text: as §16, §17, §18, §19, §20, §21, §22, §23, §7, §24, §25, §10, §26, §27

Avena fatua = experiment: Exemple A: herbicide application, pre-emergence; details: dose 4 Kg m.a./ha, notation 0 à 5 after 24 days
Text: as §16, §17, §18, §19, §20, §21, §22, §23, §7, §24, §25, §10, §26, §27

Digitaria sanguinalis [2] = experiment: Exemple A: herbicide application, pre-emergence; details: dose 4 Kg m.a./ha, notation 0 à 5 after 24 days
Text: as §16, §17, §18, §19, §20, §21, §22, §23, §7, §24, §25, §10, §26, §27

| SMILES | Notation de l'activité herbicide ALO (Alopecurus myosuroides) | Notation de l'activité herbicide SET (Setaria faberii) | Notation de l'activité herbicide PAN (Panicum milicaeum) | Notation de l'activité herbicide ECh (Echinochloa crus-galli) | Notation de l'activité herbicide DIG (Digitaria sanguinalis [1]) | Notation de l'activité herbicide SOR (Sorghum halepense) | Notation de l'activité herbicide TRZ (blé) | Notation de l'activité herbicide GLY (soja) | Notation de l'activité herbicide ZEA (maïs) | Notation de l'activité herbicide ORY (riz) | ACTIVITE HERBICIDE DE PRELEVEE ALO (Alopecurus myosuroïdes) | ACTIVITE HERBICIDE DE PRELEVEE CYP (Cyperus esculentus) | ACTIVITE HERBICIDE DE PRELEVEE ECH (Echinochloa crus galli) | ACTIVITE HERBICIDE DE PRELEVEE AVE (Avena fatua) | ACTIVITE HERBICIDE DE PRELEVEE DIG (Digitaria sanguinalis [2]) |
| --- | --- | --- | --- | --- | --- | --- | --- | --- | --- | --- | --- | --- | --- | --- | --- |
| C=C(CS(=O)(=O)c1cc(C)sc1C)c1ccccc1 [compound 51] | 4 (10 à 30) | 4 (10 à 30) | 4 (10 à 30) | 4 (10 à 30) | 5 (O à 10) | 4 (10 à 30) | 0 (90 à 100) | 0 (90 à 100) | 0 (90 à 100) | 0 (90 à 100) |  |  |  |  |  |
| C=C(CS(=O)(=O)c1cccs1)c1cccc(Cl)n1 [compound 4, 2-(6-chloro 2-pyridyl) 1-(2-thiénylsulfonyl) 2-propène] |  |  |  |  |  |  |  |  |  |  | 5 (O à 10) | 5 (O à 10) | 5 (O à 10) | 3 (30 à 50) | 5 (O à 10) |
